Measured values from ChEMBL document CHEMBL3045900, “Synthesis and antitubercular activity of nucleoside analogs based on L-ascorbic acid and bases” (2008).
In brackets after ≈: the same amount, converted by molar mass.

What was measured:
[1] = system: Mycobacterium tuberculosis; assay: Antitubercular activity against Mycobacterium tuberculosis H37Ra after 5 days by micro Alamar blue essay; type: functional; conditions: 120 h
[2] = system: Mycobacterium tuberculosis; assay: Antitubercular activity against Mycobacterium tuberculosis H37Rv after 30 days by agar microdilution method; type: functional

`COC1=C(OC)C(=CCn2cnc3ccccc32)OC1=O` showed an MIC [1] greater than 12.5 µg/mL and an MIC [2] greater than 25 µg/mL.
`COC1=C(OC)C(O)(CCn2ccnc2)N(Cc2ccccc2)C1=O` (centres undefined) was tested, and the MIC [1] was greater than 12.5 µg/mL and the MIC [2] was greater than 25 µg/mL.
With `COC1=C(OC)/C(=C/Cn2cnc3c(N)ncnc32)OC1=O` the MIC [1] was greater than 12.5 µg/mL and the MIC [2] was greater than 25 µg/mL.
In the case of `COC1=C(OC)/C(=C/Cn2ccnc2)OC1=O`, the MIC [1] is reported as greater than 12.5 µg/mL and the MIC [2] is reported as greater than 25 µg/mL.
Compound `NNC(=O)c1ccncc1` [ISONIAZID] has an MIC [2] of 0.65 µg/mL (≈ 4.74 µM).
